Data from BindingDB's records for patent US9695132 (Celgene CAR LLC, 2017).

How the values were obtained:
[1] = molecular target: T1, Fibroblast growth factor receptor 4 (Homo sapiens, UniProt P22455); assay: Omnia Assay; details: pH 7.5
Experimental: Omnia Assay Protocol for Potency Assessment Against FGFR 4 Enzyme. a) [FGFR4-WT]=10 nM, [ATP]=300 uM, [Y10-Sox]=10 uM (ATP KMapp 300 uM): A 10x stock solution of FGFR4-WT (PR4380C), (from Invitrogen, Carlsbad, Calif.) corresponding to method a in Table 7, was prepared as described below. Alternatively, a 10x stock solution of FGFR4-WT (F01-11G), (SignalChem, Richmond, BC) corresponding to method b in Table 7, was prepared as described below. A solution of 1.4xATP (AS001A) and 5x Tyr-Sox conjugated peptide substrate (KNZ3101) were prepared in 1x kinase reaction buffer consisting of 20 mM Tris, pH 7.5, 5 mM MgCl2, 1 mM EGTA, 5 mM β-glycerophosphate, 5% glycerol (10x stock, KB002A) and 0.2 mM DTT (DS001A). […] The serially diluted compounds were prepared on a Tecan EVO100. A second addition of 10 ul of Tyr-Sox FGFR4 substrate was added to each well and the kinase reactions were started with the addition of 35 uL of 1.4xATP. The reactions were monitored every 71 seconds for 240 minutes at λex360/λem485 in a Synergy plate reader from BioTek (Winooski, Vt.).

[2] = molecular target: T1, Fibroblast growth factor receptor 4; assay: Omnia Assay; details: pH 7.5; remark: listed apart in the source

T1 sequence (P22455 whole entry): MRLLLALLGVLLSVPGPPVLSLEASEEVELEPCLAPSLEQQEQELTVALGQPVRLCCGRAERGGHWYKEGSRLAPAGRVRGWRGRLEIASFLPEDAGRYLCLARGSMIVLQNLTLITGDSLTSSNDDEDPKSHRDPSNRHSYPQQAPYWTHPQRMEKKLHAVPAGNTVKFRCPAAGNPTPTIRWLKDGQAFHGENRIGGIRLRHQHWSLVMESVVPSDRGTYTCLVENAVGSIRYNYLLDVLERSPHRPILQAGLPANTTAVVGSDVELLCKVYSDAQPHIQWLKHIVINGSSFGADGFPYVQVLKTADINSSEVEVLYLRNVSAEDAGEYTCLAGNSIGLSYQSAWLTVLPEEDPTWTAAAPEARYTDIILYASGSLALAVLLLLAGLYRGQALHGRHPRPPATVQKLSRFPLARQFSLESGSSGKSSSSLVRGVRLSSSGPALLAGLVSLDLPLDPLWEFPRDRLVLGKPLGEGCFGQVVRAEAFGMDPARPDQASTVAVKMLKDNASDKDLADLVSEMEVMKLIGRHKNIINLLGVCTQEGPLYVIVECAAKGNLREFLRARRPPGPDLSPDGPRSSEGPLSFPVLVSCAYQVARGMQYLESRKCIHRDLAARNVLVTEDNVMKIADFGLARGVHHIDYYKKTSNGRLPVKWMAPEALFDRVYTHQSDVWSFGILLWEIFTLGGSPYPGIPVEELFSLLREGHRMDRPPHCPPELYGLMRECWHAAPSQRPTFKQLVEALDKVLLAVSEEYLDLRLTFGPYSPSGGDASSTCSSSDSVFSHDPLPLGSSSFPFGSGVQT

Compound	IC50 [1] [nM]	IC50 [2] [nM]
C=CC(=O)Nc1cc(N2CCC(C(=O)OC(C)(C)C)CC2)ccc1Nc1ncc2c(n1)N(C)C(=O)N(c1c(Cl)c(OC)cc(OC)c1Cl)C2 [US9695132, I-62]	< 100	–
C=CC(=O)NC1COCC1Nc1ncc2c(n1)N(Cc1c[nH]cn1)C(=O)N(c1c(Cl)c(OC)cc(OC)c1Cl)C2 (centres undefined) [US9695132, I-214]	< 100	–
C=CC(=O)Nc1cccc(Nc2ncc3c(n2)N(Cc2cccc(NC(=O)CC)c2)C(=O)C(c2c(Cl)c(OC)cc(OC)c2Cl)C3)c1 (centres undefined) [US9695132, I-232]	–	< 100
C=CC(=O)Nc1ccc(Nc2ncc3c(n2)N(Cc2cccc(NC(=O)CC)c2)C(=O)C(c2c(Cl)c(OC)cc(OC)c2Cl)C3)cc1 (centres undefined) [US9695132, I-233]	–	< 100
